# Laboratory results: US12697343B2, “Intravenous istaroxime for the treatment of acute heart failure” (Seismic Pharmaceuticals Operations LLC, priority 2021, dated 2026)
# Structures can show the parent of a compound that is named as a salt.
# Legend:
# [1] = test system: patients hospitalized for acute heart failure (AHF); experiment: Self-reported dyspnoea by visual analogue scale (VAS); format: in vivo, human
# Procedure: (§1) The primary efficacy endpoint was the change from baseline to 24 h after the start of the infusion in the E/e ratio assessed by tissue Doppler echocardiography. Secondary endpoints included the change from baseline to 24 h of other echocardiography parameters: LVEF, left ventricular end-systolic and end-diastolic volumes, stroke volume index, E, A, E/A ratio, and S′: changes in dyspnoea by visual analogue scale (VAS) and in NT-proBNP from baseline to 24 h: proportion of patients with hospital readmissions or emergency visits for cardiovascular reasons by day 30; proportion of patients with episodes of in-hospital worsening heart failure to day 4, and length of stay. In-hospital worsening heart failure was defined by the need to increase the dose or reinitiate intravenous therapy with diuretics and/or other inotropic agents to day 4. Safety endpoints were assessed throughout the study and included: incidence of adverse events (AEs): change in vital signs and in 12-lead electrocardiographic (ECG) parameters: incidence of clinically or haemodynamically significant episodes of supraventricular or ventricular arrhythmias detected by continuous ECG monitoring: standard laboratory parameters: renal function: cardiac troponin T (cTnT): incidence of cTnT elevations, and mortality at day 30. Elevations in cTnT were considered significant if they were >50% or >20% from baseline values, for patients with cTnT below or above the 99% upper reference limit at baseline, respectively.
# (§2) The study design included a 24 h screening period, a 24 h study drug infusion phase (day 1), a post-treatment phase (days 2-4), and a follow-up visit at day 30 (FIG. 5). Patients could be enrolled at any time after admission. The use of oral medications was permitted during the study with the exception of digoxin. Intravenous diuretics were permitted during the treatment period at stable doses, unless changes were required due to clinically relevant variations of the patient's condition. If treatment with an inotrope was clinically necessary during the infusion period, the investigational product was discontinued. Echocardiography was performed according to international standards at screening, baseline (just before starting study drug infusion), 6, 24 h (just before infusion end), and 48 h after infusion start. Echocardiographic measurements at baseline, 6, 24, and 48 h were evaluated in a blinded fashion by a CoreLab located at the University and Civil Hospital of Brescia, Italy. E/e′ ratio was calculated as the ratio between the peak early diastolic mitral flow velocity (E wave) and the mean of the annular lateral (e′ lateral) and septal (e′ septal) velocities, according to standard guidelines.^20 Intraobserver and interobserver variability in E/e′ measurement was tested on the 15% of the recordings and is shown in FIG. 6. Self-reported dyspnoea was assessed using a 100 mm VAS, with zero representing the worst level of dyspnoea and […] the best breathing condition. Twenty-four hour ECG monitoring was performed using a three-lead device (Mortara industries, Milwaukee, WI, USA) during the day of screening, the infusion period, and the day after (the latter was optional). Analysis was conducted by a blinded CoreLab (ICS Maugeri, Italy). Serial measurements of NT-proBNP throughout the study were analyzed by a central laboratory (Elecsys® proBNP II, Roche®, Basel, Switzerland). Samples for cTnT were taken at baseline, 3, 6, 12, 24, 48, and 72 h and on day 30, and were analyzed by a core laboratory (Elecsys® high-sensitivity assay, Roche®, Basel, Switzerland). AEs were monitored throughout the duration of the study.
# (§3) The study was designed as a mechanistic and safety study to assess the effects of a 24 h istaroxime infusion in patients hospitalized for AHF. […]
# [2] = test system: patients hospitalized for acute heart failure (AHF); parameters: species or system human; conditions: in vivo
# Procedure: as §1, with “In-hospital worsening heart failure was defined by the need to increase the dose or reinitiate intravenous therapy with diuretics and/or other inotropic agents to day 4.” left out, “Elevations in cTnT were considered significant if they were >50% or >20% from baseline values, for patients with cTnT below or above the 99% upper reference limit at baseline, respectively.” left out
# The study design included a 24 h screening period, a 24 h study drug infusion phase (day 1), a post-treatment phase (days 2-4), and a follow-up visit at day 30 (FIG. 5). […] AEs were monitored throughout the duration of the study. […]
# [3] = test system: patients hospitalized for acute heart failure (AHF); experiment: NT-proBNP serial measurements (Elecsys proBNP II); format: in vivo, human
# Procedure: as §1, §2, §3
smiles,measurement,setting,value
"C[C@]12CCC(=NOCCN)C[C@@H]1C(=O)C[C@@H]1[C@@H]2CC[C@]2(C)C(=O)CC[C@@H]12 [Istaroxime, (E,Z)-3-((2-aminoethoxy)imino)androstane-6,17-dione hydrochloride]","Dyspnoea VAS score, mean change from baseline","[1]; 0.5 μg/Kg/min, 3 hours",4.113
same,"Dyspnoea VAS score, mean change from baseline","[1]; 0.5 μg/Kg/min, 6 hours",6.582
same,"Dyspnoea VAS score, mean change from baseline","[1]; 0.5 μg/Kg/min, 12 hours",6.772
same,"Dyspnoea VAS score, mean change from baseline","[1]; 0.5 μg/Kg/min, 24 hours",9.276
same,"Dyspnoea VAS score, mean change from baseline","[1]; 0.5 μg/Kg/min, 48 hours",10.948
same,"Dyspnoea VAS score, mean change from baseline","[1]; 1.0 μg/Kg/min, 3 hours",4.212
same,"Dyspnoea VAS score, mean change from baseline","[1]; 1.0 μg/Kg/min, 6 hours",8.637
same,"Dyspnoea VAS score, mean change from baseline","[1]; 1.0 μg/Kg/min, 12 hours",9.076
same,"Dyspnoea VAS score, mean change from baseline","[1]; 1.0 μg/Kg/min, 24 hours",13.332
same,"Dyspnoea VAS score, mean change from baseline","[1]; 1.0 μg/Kg/min, 48 hours",10.075
same,cardiac troponin absolute values,[2],No significant changes
same,"NT-proBNP, median change from baseline","[3]; 0.5 μg/Kg/min, 24 hours",120 pg/mL
same,"NT-proBNP, median change from baseline","[3]; 0.5 μg/Kg/min, 48 hours",-431 pg/mL
same,"NT-proBNP, median change from baseline","[3]; 0.5 μg/Kg/min, 72 hours",-802 pg/mL
same,"NT-proBNP, median change from baseline","[3]; 1.0 μg/Kg/min, 24 hours",-214 pg/mL
same,"NT-proBNP, median change from baseline","[3]; 1.0 μg/Kg/min, 48 hours",-563 pg/mL
same,"NT-proBNP, median change from baseline","[3]; 1.0 μg/Kg/min, 72 hours",-528 pg/mL
